Data: patent US5827837A, “Polyanion anti-inflammatory agents” (priority 1996, dated 1998)
“Also recorded” adds a separate entry of the source. Where two headings read alike, the source gives them in different places.

Tests used:
[1] = target: T1, L-selectin-lg fusion protein (Homo sapiens, UniProt P14151); assay: Competition ELISA: binding of L-selectin-Ig to immobilized BSA-sLe^x
T1 construct: Each selectin-lg contains the lectin domain, epidermal growth factor domain, and one (L-selectin-lg), two (P-selectin-lg) or six (E-selectin-lg) complement regulatory repeats; made in house
Description: Selectin-lg fusion proteins are recombinant chimeric molecules containing extracellular regions of selectins coupled to the hinge, CH2, and CH3 regions of human IgG1 (Aruffo, A., et al., Cell, 67:35, 1991; Walz, G., et al., Science, 250:1132, 1990). Each selectin-lg contains the lectin domain, epidermal growth factor domain, and one (L-selectin-lg), two (P-selectin-lg) or six (E-selectin-lg) complement regulatory repeats of the parent molecules. DNAs encoding selectin-Ig inserted in pCDM7 allowed transient expression of recombinant proteins in COS cells as previously described (Seed, B., et al., Proc. Natl. Acad. Sci., U.S.A., 84:3365, 1987; Aruffo, A., Current Protocols In Molecular Biology, eds. Ausubel, F. M., et al, 16:13.1, Greene Publishing Associates and Wiley-lnterscience, New York, N.Y., 1992). These DNAs were also ligated into pNUT (Palmiter, R. D., et al, Cell, 50:435, 1987) for amplification and stable expression in BHK cells. The fusion proteins were affinity purified from culture media using protein A (Pierce Chemical Company, Rockford, Ill.) or protein G (Pharmacia, Piscataway, N.J.) Sepharose, as previously described (Aruffo, A., et al., Cell, 67:35, 1991; Aruffo, A., Current Protocols In Molecular Biology, eds. Ausubel, F. M., et al, supra, 1992). Competition binding ELISAs using P- and E-selectin-lg were performed essentially as described (Nelson, R. M., et al., J. Clin. […] Selectin concentrations were from 10 to 30 nM. […] To increase L-selectin binding, an assay similar to that previously described was used (Foxall, C., et al., J. Cell Biol., 117:895, 1992), in which the L-selectin-lg (10-20 nM) was allowed to form aggregates with HRP-conjugated anti-lg antibody for 30 minutes prior to addition of inositols and incubation on the BSA-sLe^x -coated plate. IC50 values were calculated by fitting binding data to the equation: fraction of maximal binding=IC50 […] using nonlinear least squares analysis software (Origin, Microcal Inc, Northampton, Mass.). InsP6 (dodecasodium salt), InsS6 (hexapotassium salt), myo-inositol 1 monophosphate (cyclohexylammonium salt), and myo-inositol were from Sigma Chemical Company (St. Louis, Mo.). Stock solutions were prepared daily in 0.9% NaCl and sterilized by 0.22 μm filtration. InsP6 solutions were adjusted at pH 7.4 with HCl.
(§1) L-, P-, or E-selectin-lg fusion proteins were incubated for 2-3 hours on microtiter plates coated with the neoglycoprotein BSA-sLe^x, the plates washed, and bound selectin-lg was detected using a peroxidase-conjugated antibody directed against the lg portion and a chromogenic substrate. To determine blocking activity, solution-phase lnsP6 (.circle-solid.), InsS6 (.largecircle.), or inositol (.box-solid.) at the indicated concentrations were added to the solutions containing selectin-Ig fusion proteins prior to transfer to microtiter plates (competition ELISA).

[2] = target: T2, P-selectin-lg fusion protein (Homo sapiens, UniProt P16109); assay: Competition ELISA: binding of P-selectin-Ig to immobilized BSA-sLe^x
T2 construct: Each selectin-lg contains the lectin domain, epidermal growth factor domain, and one (L-selectin-lg), two (P-selectin-lg) or six (E-selectin-lg) complement regulatory repeats; made in house
Description: (§2) Selectin-lg fusion proteins are recombinant chimeric molecules containing extracellular regions of selectins coupled to the hinge, CH2, and CH3 regions of human IgG1 (Aruffo, A., et al., Cell, 67:35, 1991; Walz, G., et al., Science, 250:1132, 1990). Each selectin-lg contains the lectin domain, epidermal growth factor domain, and one (L-selectin-lg), two (P-selectin-lg) or six (E-selectin-lg) complement regulatory repeats of the parent molecules. DNAs encoding selectin-Ig inserted in pCDM7 allowed transient expression of recombinant proteins in COS cells as previously described (Seed, B., et al., Proc. Natl. Acad. Sci., U.S.A., 84:3365, 1987; Aruffo, A., Current Protocols In Molecular Biology, eds. Ausubel, F. M., et al, 16:13.1, Greene Publishing Associates and Wiley-lnterscience, New York, N.Y., 1992). These DNAs were also ligated into pNUT (Palmiter, R. D., et al, Cell, 50:435, 1987) for amplification and stable expression in BHK cells. The fusion proteins were affinity purified from culture media using protein A (Pierce Chemical Company, Rockford, Ill.) or protein G (Pharmacia, Piscataway, N.J.) Sepharose, as previously described (Aruffo, A., et al., Cell, 67:35, 1991; Aruffo, A., Current Protocols In Molecular Biology, eds. Ausubel, F. M., et al, supra, 1992). Competition binding ELISAs using P- and E-selectin-lg were performed essentially as described (Nelson, R. M., et al., J. Clin. Invest., 91:1157, 1993), except that the assay buffer was 20 mM HEPES pH 7.4, 150 mM NaCl, 2 mM CaCl2, and 0.25 mM thimerosal, containing 10 mg/ml BSA, protease-free, (Miles Inc., Kankakee, Ill.). Selectin concentrations were from 10 to 30 nM. […] To increase L-selectin binding, an assay similar to that previously described was used (Foxall, C., et al., J. Cell Biol., 117:895, 1992), in which the L-selectin-lg (10-20 nM) was allowed to form aggregates with HRP-conjugated anti-lg antibody for 30 minutes prior to addition of inositols and incubation on the BSA-sLe^x -coated plate. IC50 values were calculated by fitting binding data to the equation: fraction of maximal binding=IC50 […] using nonlinear least squares analysis software (Origin, Microcal Inc, Northampton, Mass.). InsP6 (dodecasodium salt), InsS6 (hexapotassium salt), myo-inositol 1 monophosphate (cyclohexylammonium salt), and myo-inositol were from Sigma Chemical Company (St. Louis, Mo.). Stock solutions were prepared daily in 0.9% NaCl and sterilized by 0.22 μm filtration. InsP6 solutions were adjusted at pH 7.4 with HCl.
as §1

[3] = target: T3, E-selectin-lg fusion protein (Homo sapiens, UniProt P16581); assay: Competition ELISA: binding of E-selectin-Ig to immobilized BSA-sLe^x
T3 construct: Each selectin-lg contains the lectin domain, epidermal growth factor domain, and one (L-selectin-lg), two (P-selectin-lg) or six (E-selectin-lg) complement regulatory repeats; made in house
Description: as §2, §1

L-selectin [4] = settings: cited from earlier work
P-selectin [5] = settings: cited from earlier work
L-selectin [6] = settings: cited from earlier work; remark: listed apart in the source
P-selectin [7] = settings: cited from earlier work; remark: listed apart in the source
[8] = tested on: PMN within the peritoneal cavity; assay: Thioglycollate-induced peritoneal inflammation, PMN accumulation; format: in vivo, mice (Balb/c); settings: mice, 80 μmol/kg in two i.v. injections, 2 experiments
hemoglobin = settings: avian erythrocytes; cited from earlier work
inflammation = settings: rodent model; cited from earlier work
[9] = chelator concentration above 1 mM
[10] = up to a concentration of 1 mM in assay buffer

O=C(O)CN(CCN(CC(=O)O)CC(=O)O)CC(=O)O [EDTA, reference compound]
inhibition profile, L-selectin [1, 9]: same inhibition profile on all three selectins
blocking of L-selectin with chelator [1, 10]: no blocking of any selectin up to a concentration of 1 mM
inhibition profile, P-selectin [2, 9]: same inhibition profile on all three selectins
blocking of P-selectin with chelator [2, 10]: no blocking of any selectin up to a concentration of 1 mM
inhibition profile, E-selectin [3, 9]: same inhibition profile on all three selectins
blocking of E-selectin with chelator [3, 10]: no blocking of any selectin up to a concentration of 1 mM
effect of calcium chelator on L-selectin interaction with sulfatides (L-selectin [4]): largely unaffected
effect of calcium chelator on P-selectin interaction with sulfatides (P-selectin [5]): largely unaffected

fucoidan
L-selectin interaction / dependent adhesion (L-selectin [6]): L-selectin adhesion can be blocked; also recorded: interact with both P- and L-selectin
P-selectin interaction / dependent adhesion (P-selectin [7]): interact with both P- and L-selectin

O=P(O)(O)O[C@@H]1[C@@H](O)[C@H](OP(=O)(O)O)[C@@H](OP(=O)(O)O)[C@H](O)[C@@H]1O [L-isomer of Ins1,4,5 P3]
inhibition of L-selectin-Ig binding ([1]; preliminary competition ELISA, up to 700 μM): no inhibition at concentrations up to 700 μM

CC(=O)N[C@H]1[C@H]([C@H](O)[C@H](O)CO)O[C@@](O[C@H]2[C@@H](O)[C@@H](CO)O[C@@H](O[C@H]3[C@H](O[C@@H]4O[C@@H](C)[C@@H](O)[C@@H](O)[C@@H]4O)[C@@H](NC(C)=O)C(O)O[C@@H]3CO)[C@@H]2O)(C(=O)O)C[C@@H]1O (some centres unmarked) [sLe^x, Neu5Acα2-3Galβ1-4(Fucα1-3)GIcNAc, reference compound]
blocking of L-selectin-Ig binding ([1]; BSA-sLe^x competition ELISA): failed to block L-selectin binding at concentrations up to 1 mM
IC50 ([3]; BSA-sLe^x competition ELISA, solution-phase sLe^x): 510 ± 60 µM

O=P(O)(O)O[C@@H]1[C@@H](OP(=O)(O)O)[C@H](OP(=O)(O)O)[C@H](O)[C@H](OP(=O)(O)O)[C@H]1OP(=O)(O)O [InsP5, inositol pentakisphosphate]
IC50 ([1]; selected assays, in vitro, read-out: IC50, blocking activity against L-selectin): 38 ± 17 µM
IC50 ([2]; selected assays, in vitro, read-out: IC50, blocking activity against P-selectin): 940 ± 130 µM
reduced peritoneal influx of PMN (inhibition) [8]: 48±6%
effect on hemoglobin affinity for oxygen (hemoglobin): increasing its affinity for oxygen

O=P(O)(O)O[C@@H]1[C@@H](O)[C@@H](O)[C@@H](OP(=O)(O)O)[C@H](OP(=O)(O)O)[C@H]1O (relative stereo) [D, L-isomer mixture of Ins1,4,6 P3]
IC50 ([1]; preliminary competition ELISA, single experiment, read-out: IC50, L-selectin-Ig): 230 ± 90 µM

O=P(O)(O)O[C@@H]1[C@H](OP(=O)(O)O)[C@H](O)[C@@H](O)[C@H](O)[C@H]1OP(=O)(O)O [1,2,6-triphosphate (IP3), 1,2,6-triphosphate]
inhibition of inflammation (inflammation): modestly inhibit inflammation

O=P(O)(O)OC1[C@H](O)[C@H](O)C(O)[C@H](O)[C@H]1O (some centres unmarked) [InsP1, myo-inositol 1 monophosphate, reference compound]
activity against L-selectin ([1]; selected assays, in vitro): no activity
activity against P-selectin ([2]; selected assays, in vitro): no activity

heparin
L-selectin interaction / dependent adhesion (L-selectin [6]): interact with both P- and L-selectin
P-selectin interaction / dependent adhesion (P-selectin [7]): interact with both P- and L-selectin
